What was measured:
human adenosine A1R = target: T1, human adenosine A1R (Homo sapiens, UniProt P30542); assay: Radioligand binding at human adenosine A1 receptor vs. [3H]CCPA; conditions: for Ki: human recombinant receptor in CHO cells, read-out: A1R vs. [³H]CCPA Ki ± SEM; for inhibition at 1 µM: CHO cells, read-out: A1R vs. [³H]CCPA % Inhibition ± SEM at 1 µM
T1 construct: expressed in transfected cells; host or cells: CHO cells
T1 sequence (P30542 1-326): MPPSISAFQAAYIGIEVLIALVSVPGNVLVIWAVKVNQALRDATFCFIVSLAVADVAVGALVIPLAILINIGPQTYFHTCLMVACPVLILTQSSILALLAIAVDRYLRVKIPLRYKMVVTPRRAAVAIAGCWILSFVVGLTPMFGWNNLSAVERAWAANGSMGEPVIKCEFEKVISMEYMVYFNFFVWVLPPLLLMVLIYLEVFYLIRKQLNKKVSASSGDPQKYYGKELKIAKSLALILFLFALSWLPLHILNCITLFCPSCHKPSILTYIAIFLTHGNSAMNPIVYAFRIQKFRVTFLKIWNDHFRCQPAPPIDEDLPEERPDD
Description: (§1) Affinities for adenosine receptors were evaluated in radioligand binding assays as previously described. Human adenosine receptors were stably expressed in CHO cells. The following radioligands were used: [^3H]2-chloro-N^6-cyclopentyladenosine ([^3H]CCPA) for A1R; [^3H]3-(3-hydroxypropyl)-7-methyl-8-(m-methoxystyryl)-1-propargylxanthine ([^3H]MSX-2) for A2AR; [^3H]8-(4-(4-(4-chlorophenyl)piperazine-1-sulfonyl)phenyl)-1-propylxanthine ([^3H]PSB-603) for A2BR; [^3H]phenyl-8-ethyl-4-methyl-(8R)-4,5,7,8-tetrahydro-1H-imidazo [2,1-i]purine-5-one ([^3H]PSB-11) for A3R. Initially, compounds were tested at a concentration of 1 µM. […] At least three independent experiments were performed. Data were analyzed using GraphPad PRISM version 5.0 or higher (Graph Pad, San Diego, CA, USA). Ki were calculated using the Cheng–Prusoff equation.

human adenosine A2BR = target: T2, human adenosine A2BR (Homo sapiens, UniProt P29275); assay: Radioligand binding at human adenosine A2B receptor vs. [3H]PSB-603; conditions: for inhibition at 1 µM: CHO cells, read-out: A2BR vs. [³H]PSB-603 % Inhibition ± SEM at 1 µM; for Ki: human recombinant receptor in CHO cells, read-out: A2BR vs. [³H]PSB-603 Ki ± SEM
T2 construct: expressed in transfected cells; host or cells: CHO cells
T2 sequence (P29275 1-332): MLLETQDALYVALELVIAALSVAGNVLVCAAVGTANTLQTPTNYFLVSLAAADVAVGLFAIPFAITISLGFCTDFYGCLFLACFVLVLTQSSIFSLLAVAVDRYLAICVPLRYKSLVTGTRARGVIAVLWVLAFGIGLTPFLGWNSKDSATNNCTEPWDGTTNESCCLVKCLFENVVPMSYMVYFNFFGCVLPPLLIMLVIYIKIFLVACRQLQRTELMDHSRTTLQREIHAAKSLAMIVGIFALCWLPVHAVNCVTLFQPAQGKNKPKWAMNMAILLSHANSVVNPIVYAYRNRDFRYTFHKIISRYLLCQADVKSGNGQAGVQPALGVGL
Description: as §1

human adenosine A2AR = target: T3, human adenosine A2AR (Homo sapiens, UniProt P29274); assay: Radioligand binding at human adenosine A2A receptor vs. [3H]MSX-2; conditions: for Ki: human recombinant receptor in CHO cells, read-out: A2AR vs. [³H]MSX-2 Ki ± SEM
T3 construct: expressed in transfected cells; host or cells: CHO cells
T3 sequence (P29274 whole entry): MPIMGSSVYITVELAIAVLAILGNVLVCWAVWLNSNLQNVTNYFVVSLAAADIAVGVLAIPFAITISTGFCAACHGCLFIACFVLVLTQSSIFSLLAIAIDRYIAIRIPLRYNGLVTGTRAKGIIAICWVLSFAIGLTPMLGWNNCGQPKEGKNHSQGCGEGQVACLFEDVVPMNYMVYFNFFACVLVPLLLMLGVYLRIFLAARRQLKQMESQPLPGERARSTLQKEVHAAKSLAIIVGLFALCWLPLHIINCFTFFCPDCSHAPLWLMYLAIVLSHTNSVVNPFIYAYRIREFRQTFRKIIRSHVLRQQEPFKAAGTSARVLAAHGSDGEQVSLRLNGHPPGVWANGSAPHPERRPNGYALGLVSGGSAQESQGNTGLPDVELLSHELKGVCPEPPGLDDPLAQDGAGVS
Description: as §1

human MAO B = target: T4, human MAO B (Homo sapiens, UniProt P27338); assay: Human MAO B inhibition, fluorometric method; assay type: biochemical; conditions: mean of two independent experiments, read-out: % of hMAO B Inhibition at 1 µM
T4 sequence (P27338 1-520): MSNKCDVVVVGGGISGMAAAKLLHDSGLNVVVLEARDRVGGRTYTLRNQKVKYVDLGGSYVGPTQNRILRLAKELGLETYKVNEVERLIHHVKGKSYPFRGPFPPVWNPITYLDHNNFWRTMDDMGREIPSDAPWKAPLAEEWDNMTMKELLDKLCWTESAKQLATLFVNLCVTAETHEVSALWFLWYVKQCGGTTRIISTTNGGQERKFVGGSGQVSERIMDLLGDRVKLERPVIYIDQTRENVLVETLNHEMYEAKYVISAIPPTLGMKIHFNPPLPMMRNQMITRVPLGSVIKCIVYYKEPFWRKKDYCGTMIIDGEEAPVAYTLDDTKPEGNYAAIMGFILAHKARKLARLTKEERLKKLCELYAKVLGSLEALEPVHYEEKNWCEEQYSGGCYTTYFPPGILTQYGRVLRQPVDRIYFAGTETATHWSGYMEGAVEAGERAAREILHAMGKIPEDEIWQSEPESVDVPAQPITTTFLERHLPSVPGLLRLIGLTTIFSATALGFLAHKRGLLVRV
Description: The compounds were tested twice in duplicates at a concentration of 1 μM by fluorometric method as previously described. Paratyramine (200 μM) was used as a substrate for the enzyme. Safinamide (1 μM; reversible) and rasagiline (1 μM; irreversible) were used as reference inhibitors.

human adenosine A3R = target: T5, human adenosine A3R (Homo sapiens, UniProt P0DMS8); assay: Radioligand binding at human adenosine A3 receptor vs. [3H]PSB-11; conditions: for inhibition at 1 µM: CHO cells, read-out: A3R vs. [H³]PSB-11 % Inhibition ± SEM at 1 µM; for Ki: human recombinant receptor in CHO cells, read-out: A3R vs. [H³]PSB-11 Ki ± SEM
T5 construct: expressed in transfected cells; host or cells: CHO cells
T5 sequence (P0DMS8 1-318): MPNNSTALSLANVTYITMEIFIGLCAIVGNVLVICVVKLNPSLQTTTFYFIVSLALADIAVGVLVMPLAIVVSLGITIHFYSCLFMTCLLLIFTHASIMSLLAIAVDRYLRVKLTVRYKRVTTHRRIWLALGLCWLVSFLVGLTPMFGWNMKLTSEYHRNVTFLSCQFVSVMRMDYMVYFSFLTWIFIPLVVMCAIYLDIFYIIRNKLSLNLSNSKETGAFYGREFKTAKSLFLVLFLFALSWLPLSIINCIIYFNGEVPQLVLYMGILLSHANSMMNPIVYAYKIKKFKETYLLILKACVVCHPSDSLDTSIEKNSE
Description: as §1

Row | SMILES | Ki (human adenosine A1R) | inhibition at 1 µM (human adenosine A2BR) | Ki (human adenosine A2BR) | melting point | Ki (human adenosine A2AR) | inhibition at 1 µM (human MAO B) | inhibition at 1 µM (human adenosine A3R) | Ki (human adenosine A3R) | inhibition at 1 µM (human adenosine A1R) | A2AR vs. [³H]MSX-2 % Inhibition ± SEM at 1 µM (human adenosine A2AR; 1 µM, CHO cells)
1 | CCCn1c(=O)c2c(nc(NCc3cccc(Br)c3)n2C)n(C)c1=O [compound 16, 8-((3-Bromobenzyl)amino)-3,7-dimethyl-1-propyl-3,7-dihydro-1H-purine-2,6-dione] | 340 ± 73 nM | 30% | > 1000 nM | 220 to 222 °C | 254 ± 59 nM | 11% | 11% | > 1000 nM |  | 
2 | CCCn1c(=O)c2c(nc(NCc3ccccc3F)n2C)n(C)c1=O [compound 13, 8-((2-Fluorobenzyl)amino)-3,7-dimethyl-1-propyl-3,7-dihydro-1H-purine-2,6-dione] | > 1000 nM | 21% | > 1000 nM | 224 to 226 °C | > 1000 nM | 15% | 6% | > 1000 nM | 32% | 47 ± 2%
3 | CCCn1c(=O)c2c(nc(NCc3cccc(Cl)c3)n2C)n(C)c1=O [compound 15, 8-((3-Chlorobenzyl)amino)-3,7-dimethyl-1-propyl-3,7-dihydro-1H-purine-2,6-dione] | > 1000 nM | 34% | > 1000 nM | 185 to 187 °C | 588 ± 74 nM | 10% | 0% | > 1000 nM | 40% | 
4 | CCCn1c(=O)c2c(nc(NCc3c(F)cccc3Cl)n2C)n(C)c1=O [compound 14, 8-((2-Chloro-6-fluorobenzyl)amino)-3,7-dimethyl-1-propyl-3,7-dihydro-1H-purine-2,6-dione] | > 1000 nM |  | 687 ± 147 nM | 241 to 243 °C | 124 ± 26 nM | 9% | 18% | > 1000 nM | 29% | 
5 | CCCn1c(=O)c2c(nc(NCc3ccccc3Cl)n2C)n(C)c1=O [compound 5, 8-((2-Chlorobenzyl)amino)-3,7-dimethyl-1-propyl-3,7-dihydro-1H-purine-2,6-dione] | > 1000 nM |  | 832 ± 133 nM | 190 to 191 °C | 302 ± 34 nM | 8% | 4% | > 1000 nM | 26% | 
6 | CCCn1c(=O)c2c(nc(NCc3ccc(OC)c(OC)c3)n2C)n(C)c1=O [compound 18, 8-((3,4-dimethoxybenzyl)amino)-3,7-dimethyl-1-propyl-3,7-dihydro-1H-purine-2,6-dione] | > 1000 nM | 17% | > 1000 nM | 200 to 201 °C | 773 ± 127 nM | 2% | -5% | > 1000 nM | 7% | 
7 | CCCn1c(=O)c2c(nc(NCc3ccccc3Br)n2C)n(C)c1=O [compound 12, 8-((2-Bromobenzyl)amino)-3,7-dimethyl-1-propyl-3,7-dihydro-1H-purine-2,6-dione] | > 1000 nM | 33% | > 1000 nM | 206 to 207 °C | 361 ± 82 nM | 7% | 8% | > 1000 nM | 30% | 
8 | CCCn1c(=O)c2c(nc(NCc3cccc(OC)c3)n2C)n(C)c1=O [compound 17, 8-((3-methoxybenzyl)amino)-3,7-dimethyl-1-propyl-3,7-dihydro-1H-purine-2,6-dione] | > 1000 nM | 20% | > 1000 nM | 173 to 175 °C | 605 ± 120 nM | 5% | 6% | > 1000 nM | 17% | 

Results, then the compound that gave them:

Row | Ki (human adenosine A1R) | inhibition at 1 µM (human adenosine A2BR) | Ki (human adenosine A2BR) | melting point | Ki (human adenosine A2AR) | inhibition at 1 µM (human MAO B) | inhibition at 1 µM (human adenosine A3R) | Ki (human adenosine A3R) | inhibition at 1 µM (human adenosine A1R) | A2AR vs. [³H]MSX-2 % Inhibition ± SEM at 1 µM (human adenosine A2AR; 1 µM, CHO cells) | SMILES
9 | 460 ± 99 nM | 35% | > 1000 nM | 217 to 219 °C | 225 ± 40 nM | 11% | 0% | > 1000 nM |  |  | C#CCn1c(=O)c2c(nc(NCc3cccc(OC)c3)n2C)n(C)c1=O [compound 25, 8-((3-Methoxybenzyl)amino)-3,7-dimethyl-1-(prop-2-yn-1-yl)-3,7-dihydro-1H-purine-2,6-dione]
10 | > 1000 nM | 28% | > 1000 nM | 247 to 249 °C | 108 ± 22 nM | 3% | 2% | > 1000 nM | -2% |  | C#CCn1c(=O)c2c(nc(NCc3ccc(OC)c(OC)c3)n2C)n(C)c1=O [compound 26, 8-((3,4-dimethoxybenzyl)amino)-3,7-dimethyl-1-(prop-2-yn-1-yl)-3,7-dihydro-1H-purine-2,6-dione]
11 | 334 ± 122 nM | 26% | > 1000 nM | 234 to 236 °C | 126 ± 15 nM | 8% | 14% | > 1000 nM |  |  | C#CCn1c(=O)c2c(nc(NCc3cccc(Cl)c3)n2C)n(C)c1=O [compound 23, 8-((3-Chlorobenzyl)amino)-3,7-dimethyl-1-(prop-2-yn-1-yl)-3,7-dihydro-1H-purine-2,6-dione]
12 | > 1000 nM | 25% | > 1000 nM | 210 to 212 °C | 137 ± 35 nM | 32% | 13% | > 1000 nM | 44% |  | C#CCn1c(=O)c2c(nc(NCc3ccccc3Br)n2C)n(C)c1=O [compound 20, 8-((2-Bromobenzyl)amino)-3,7-dimethyl-1-(prop-2-yn-1-yl)-3,7-dihydro-1H-purine-2,6-dione]
13 | 353 ± 42 nM | 41% | > 1000 nM | 224 to 226 °C | 287 ± 90 nM | 8% | 21% | > 1000 nM |  |  | C#CCn1c(=O)c2c(nc(NCc3ccccc3F)n2C)n(C)c1=O [compound 21, 8-((2-Fluorobenzyl)amino)-3,7-dimethyl-1-(prop-2-yn-1-yl)-3,7-dihydro-1H-purine-2,6-dione]

Reference: paper PMC10531311, “Anti-Inflammatory Activities of 8-Benzylaminoxanthines Showing High Adenosine A2A and Dual A1/A2A Receptor Affinity” (International Journal of Molecular Sciences, 2023)
